Measurements reported in article PMC11079024, “Identification of a family of species-selective complex I inhibitors as potential anthelmintics” (Nature Communications, 2024).
“And” between values parts separate entries of the source, which are not always exact repeats. Equal entries are not always repeated. Where two headings read alike, the source gives them in different places.

Experiments:
[1] = biological target: M. musculus (heart) complex I (Mus musculus, UniProt P03888+Q91WD5+Q9DC70); test: biochemical; format: biochemical; set-up: Complex I activity, dose-response data: unit not given here
Description: Six 8–10-week-old C57Bl/6 female mice (Charles River) were freshly dissected, and their livers and hearts collected into separate 1.5 mL microcentrifuge tubes. Organs were flash-frozen in liquid nitrogen and stored at −80 °C prior to use. The heart of a freshly slaughtered adult cow was obtained from a local abattoir (Peel Sausage Inc.), chopped into ~1-inch cubes and collected into 50 mL falcon tubes. Falcon tubes were flash-frozen in a container of dry ice and stored at −80 °C prior to use. Isolation of mitochondria from all mammalian tissue was carried out following the protocol described above. However, due to size, the initial homogenization of tissue was performed by 15 strokes in a dounce homogenizer (mouse heart) or with several 5 s pulses in small Nutribullet blender (cow heart). All mouse protocols for mouse care and dissection were reviewed and approved by the University of Toronto Animal Care Committee, in accordance with the Canadian Council on Animal Care.
The enzymatic activities of individual ETC complexes (I-IV) were assessed spectrophotometrically in isolated mitochondria using a Varioskan LUX Multimode plate reader (ThermoFisher Scientific). Mitochondrial pellets previously isolated were thawed on ice and resuspended in ice-cold isolation buffer (250 mM sucrose, 10 mM Tris (pH 7.5), 1 mM EDTA). The BCA assay (Walker, 1994) was used to quantify the protein concentration of mitochondria suspensions; solutions were diluted to a concentration of 0.2 mg/mL for use in all assays. For the complex I assay, mitochondria pellets were freeze-thawed on ice three times to increase enzyme accessibility. […] 20 μL mitochondria suspension was then added/mixed with a pipette to initiate the reaction. Immediately following the addition of mitochondria, absorbance was measured (complex I and II: 600 nm; complex III and IV: 550 nm) in 30 s intervals over 15 min. Enzymatic activity was determined in each reaction by plotting absorbance versus time and calculating the slope of the curve during the initial linear phase of the reaction. […] Percent activity of each complex was calculated by dividing the enzyme-specific activity of each well by the enzyme-specific activity of the corresponding solvent controls.
Chemical solutions were prepared in complex I assay buffer composed of 25 mM KPi buffer (pH 7.5), 3 mg/mL bovine serum albumin (BSA), 80 μM NADH, 60 μM decylubiquinone, 160 μM DCIP, 2 μM antimycin A and 2 mM KCN.
For preliminary screens of hit compounds, compounds were screened at 100 μM; data are the average of at least three biological replicates. The complex I and II activity assays were used for additional dose-response experiments. […] For dose responses of benzimidazole analogs, data represent the average of two biological replicates. For all other dose-responses, data represent the average of at least three biological replicates.

[2] = system: C. elegans complex III (decylubiquinol-cytochrome C reductase); test: In vitro complex III activity assay, C. elegans mitochondria; format: biochemical, Caenorhabditis elegans
Outline: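 Mitochondria were isolated from adult C. elegans by bead-beating and differential centrifugation, then used at 0.2 mg/mL protein. Antimycin A-sensitive complex III activity was followed as decylubiquinol-driven cytochrome C reduction at 550 nm every 30 s for 15 min. Initial linear slopes were expressed as percent of solvent control.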

[3] = M. musculus (heart) mitochondria, mean of replicates, read-out: percent (%) in vitro complex I activity relative to solvent control
[4] = M. musculus (heart) mitochondria, single replicate, read-out: percent (%) in vitro complex I activity relative to solvent control
[5] = M. musculus (heart) mitochondria, Mean of replicates, read-out: in vitro complex I activity relative to solvent control
[6] = M. musculus (heart) mitochondria, single replicate, read-out: in vitro complex I activity relative to solvent control

Chain of M. musculus (heart) complex I (Q91WD5 34-463): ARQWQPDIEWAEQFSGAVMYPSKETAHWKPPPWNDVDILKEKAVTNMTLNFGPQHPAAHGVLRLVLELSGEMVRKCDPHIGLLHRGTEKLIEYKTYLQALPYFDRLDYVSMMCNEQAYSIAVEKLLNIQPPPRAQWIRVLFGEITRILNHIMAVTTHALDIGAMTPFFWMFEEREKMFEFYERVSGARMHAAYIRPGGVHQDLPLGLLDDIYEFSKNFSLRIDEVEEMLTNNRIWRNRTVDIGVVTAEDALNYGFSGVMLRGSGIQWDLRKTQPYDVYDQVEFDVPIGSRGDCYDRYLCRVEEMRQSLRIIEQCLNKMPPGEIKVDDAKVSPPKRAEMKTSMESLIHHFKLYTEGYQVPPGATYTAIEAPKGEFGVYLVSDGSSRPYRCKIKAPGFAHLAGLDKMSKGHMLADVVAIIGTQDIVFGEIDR
Chain of M. musculus (heart) complex I (Q9DC70 36-224): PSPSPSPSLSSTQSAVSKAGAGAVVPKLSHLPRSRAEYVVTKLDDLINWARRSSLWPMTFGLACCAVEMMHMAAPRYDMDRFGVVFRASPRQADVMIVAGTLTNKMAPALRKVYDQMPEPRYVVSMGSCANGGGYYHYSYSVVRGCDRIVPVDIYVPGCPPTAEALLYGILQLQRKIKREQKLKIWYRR
Chain of M. musculus (heart) complex I (P03888 whole entry): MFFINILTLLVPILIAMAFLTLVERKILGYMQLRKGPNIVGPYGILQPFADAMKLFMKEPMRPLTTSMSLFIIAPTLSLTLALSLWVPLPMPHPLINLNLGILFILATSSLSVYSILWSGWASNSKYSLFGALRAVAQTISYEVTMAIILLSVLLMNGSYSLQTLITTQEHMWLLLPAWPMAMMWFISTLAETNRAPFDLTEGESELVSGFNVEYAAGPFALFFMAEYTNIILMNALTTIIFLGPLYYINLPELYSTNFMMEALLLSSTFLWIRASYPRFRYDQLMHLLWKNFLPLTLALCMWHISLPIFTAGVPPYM

CC(C)Cc1ccc(C(C)c2nc3ccccc3n2C)cc1 (centres unmarked) [NPD8790]
remaining activity at 0.125 µM [1, 3]: 101% | remaining activity at 0.125 µM [1, 4]: 99.7% | remaining activity at 0.313 µM [1, 3]: 97.5% | remaining activity at 0.313 µM [1, 4]: 97.7% | remaining activity at 0.625 µM [1, 3]: 100% | remaining activity at 0.625 µM [1, 4]: 100% | remaining activity at 1.5 µM [1, 3]: 100% | remaining activity at 1.5 µM [1, 4]: 100% | remaining activity at 3 µM [1, 3]: 99.1% | remaining activity at 3 µM [1, 4]: 100% | remaining activity at 15 µM [1, 3]: 78.9% | remaining activity at 15 µM [1, 4]: 77.5% | remaining activity at 37.5 µM [1, 3]: 44.3% | remaining activity at 37.5 µM [1, 4]: 40.4% | remaining activity at 75 µM [1, 3]: 24.7% | remaining activity at 75 µM [1, 4]: 18% | remaining activity at 0.06 µM ([1]; M. musculus (heart) mitochondria, 0.06 µM, Mean of replicates, read-out: in vitro complex I activity relative to solvent control): 103% | remaining activity at 0.13 µM [1, 5]: 101% | remaining activity at 0.13 µM [1, 6]: 99.7% | remaining activity at 0.313 µM [1, 5]: 97.5% | remaining activity at 0.313 µM [1, 6]: 97.7% | remaining activity at 0.625 µM [1, 5]: 100% | remaining activity at 0.625 µM [1, 6]: 100% | remaining activity at 1.5 µM [1, 5]: 100% | remaining activity at 1.5 µM [1, 6]: 100% | remaining activity at 3 µM [1, 5]: 99.1% | remaining activity at 3 µM [1, 6]: 100% | remaining activity at 15 µM [1, 5]: 78.9% | remaining activity at 15 µM [1, 6]: 77.5% | remaining activity at 37.5 µM [1, 5]: 44.3% | remaining activity at 37.5 µM [1, 6]: 40.4% | remaining activity at 75 µM [1, 5]: 24.7% | remaining activity at 75 µM [1, 6]: 18% | activity at 0.0001 µM ([1]; M. musculus, Mean of replicates, read-out: Complex I activity, dose-response data): 100% | activity at 0.0001 µM ([1]; M. musculus, individual replicates (Rep), read-out: Complex I activity, dose-response data): 100% | activity at 0.0005 µM ([1]; M. musculus, dose 0.0005 µM, Mean of replicates, read-out: Complex I activity, dose-response data): 103% | Complex I activity, dose-response data ([1]; M. musculus, dose 0.0005 µM, individual replicates (Rep)): 104.677 and 101.090 and 100.240 | activity at 0.0005 µM ([1]; M. musculus, dose 0.0005 µM, individual replicates (Rep), read-out: Complex I activity, dose-response data): 105% | activity at 0.001 µM ([1]; M. musculus, dose 0.001 µM, Mean of replicates, read-out: Complex I activity, dose-response data): 103% | Complex I activity, dose-response data ([1]; M. musculus, dose 0.001 µM, individual replicates (Rep)): 105.312 and 100.449 and 100.153 | activity at 0.001 µM ([1]; M. musculus, dose 0.001 µM, individual replicates (Rep), read-out: Complex I activity, dose-response data): 106% | activity at 0.0025 µM ([1]; M. musculus, dose 0.0025 µM, Mean of replicates, read-out: Complex I activity, dose-response data): 104% | Complex I activity, dose-response data ([1]; M. musculus, dose 0.0025 µM, individual replicates (Rep)): 112.270 and 101.643 and 99.207 | activity at 0.0025 µM ([1]; M. musculus, dose 0.0025 µM, individual replicates (Rep), read-out: Complex I activity, dose-response data): 103% | activity at 0.005 µM ([1]; M. musculus, dose 0.005 µM, Mean of replicates, read-out: Complex I activity, dose-response data): 104% | Complex I activity, dose-response data ([1]; M. musculus, dose 0.005 µM, individual replicates (Rep)): 110.480 and 103.776 and 102.056 | activity at 0.005 µM ([1]; M. musculus, dose 0.005 µM, individual replicates (Rep), read-out: Complex I activity, dose-response data): 101% | activity at 0.013 µM ([1]; M. musculus, dose 0.013 µM, Mean of replicates, read-out: Complex I activity, dose-response data): 104% | Complex I activity, dose-response data ([1]; M. musculus, dose 0.013 µM, individual replicates (Rep)): 111.361 and 104.185 and 100.073 | activity at 0.013 µM ([1]; M. musculus, dose 0.013 µM, individual replicates (Rep), read-out: Complex I activity, dose-response data): 99.2% | activity at 0.025 µM ([1]; M. musculus, dose 0.025 µM, Mean of replicates, read-out: Complex I activity, dose-response data): 106% | Complex I activity, dose-response data ([1]; M. musculus, dose 0.025 µM, individual replicates (Rep)): 117.035 and 103.670 and 100.685 | activity at 0.025 µM ([1]; M. musculus, dose 0.025 µM, individual replicates (Rep), read-out: Complex I activity, dose-response data): 102% | activity at 0.063 µM ([1]; M. musculus, dose 0.063 µM, Mean of replicates, read-out: Complex I activity, dose-response data): 103% | Complex I activity, dose-response data ([1]; M. musculus, dose 0.063 µM, individual replicates (Rep)): 102.752 and 117.261 and 99.301 and 94.461 | activity at 0.125 µM ([1]; M. musculus, dose 0.125 µM, Mean of replicates, read-out: Complex I activity, dose-response data): 101% | Complex I activity, dose-response data ([1]; M. musculus, dose 0.125 µM, individual replicates (Rep)): 109.547 and 101.293 and 94.390 | activity at 0.125 µM ([1]; M. musculus, dose 0.125 µM, individual replicates (Rep), read-out: Complex I activity, dose-response data): 99.7% | Complex I activity, dose-response data ([1]; M. musculus, dose 0.313 µM, individual replicates (Rep)): 201.293 and 194.390 | activity at 0.313 µM ([1]; M. musculus, dose 0.313 µM, individual replicates (Rep), read-out: Complex I activity, dose-response data): 210% | Complex I activity, dose-response data ([1]; M. musculus, dose 0.625 µM, individual replicates (Rep)): 301.293 and 294.390 | activity at 0.625 µM ([1]; M. musculus, dose 0.625 µM, individual replicates (Rep), read-out: Complex I activity, dose-response data): 310% | Complex I activity, dose-response data ([1]; M. musculus, dose 1.5 µM, individual replicates (Rep)): 401.293 and 394.390 | activity at 1.5 µM ([1]; M. musculus, dose 1.5 µM, individual replicates (Rep), read-out: Complex I activity, dose-response data): 410% | activity at 3 µM ([1]; M. musculus, dose 3 µM, Mean of replicates, read-out: Complex I activity, dose-response data): 99.1% | Complex I activity, dose-response data ([1]; M. musculus, dose 3 µM, individual replicates (Rep)): 102.668 and 98.080 and 95.248 | activity at 3 µM ([1]; M. musculus, dose 3 µM, individual replicates (Rep), read-out: Complex I activity, dose-response data): 100% | activity at 15 µM ([1]; M. musculus, dose 15 µM, Mean of replicates, read-out: Complex I activity, dose-response data): 78.9% | Complex I activity, dose-response data ([1]; M. musculus, dose 15 µM, individual replicates (Rep)): 87.100 and 75.283 and 75.658 | activity at 15 µM ([1]; M. musculus, dose 15 µM, individual replicates (Rep), read-out: Complex I activity, dose-response data): 77.5% | activity at 37.5 µM ([1]; M. musculus, dose 37.5 µM, Mean of replicates, read-out: Complex I activity, dose-response data): 44.3% | Complex I activity, dose-response data ([1]; M. musculus, dose 37.5 µM, individual replicates (Rep)): 50.337 and 43.421 and 43.042 | activity at 37.5 µM ([1]; M. musculus, dose 37.5 µM, individual replicates (Rep), read-out: Complex I activity, dose-response data): 40.4% | activity at 75 µM ([1]; M. musculus, dose 75 µM, Mean of replicates, read-out: Complex I activity, dose-response data): 24.7% | Complex I activity, dose-response data ([1]; M. musculus, dose 75 µM, individual replicates (Rep)): 29.417 and 25.967 and 25.618 | activity at 75 µM ([1]; M. musculus, dose 75 µM, individual replicates (Rep), read-out: Complex I activity, dose-response data): 18% | IC50 ([1]; heart mitochondria): 28.8 µM and 28.9 µM | % Activity Complex III ([2]; 100 µM compound, relative to solvent control, mean (SEM)): 63.54 (0.90) % | Percent in vitro activity, Complex III (single replicate Rep1-Rep4) ([2]; 100 μM of NPD compound, C. elegans mitochondria, individual biological replicates): 58.669% and 65.835% and 63.074% and 66.590% | Percent in vitro activity, Complex III (Mean) ([2]; 100 μM of NPD compound, C. elegans mitochondria, mean of four biological replicates): 63.542%
